# Measurements published in US3969363A, “Derivatives of 1-phenoxy-3-amino-propan-2-ol and process for their production” (Cassella Farbwerke Mainkur Aktiengesellschaft, priority 1973, dated 1976).
# Experiments:
# [1] = molecular target: T1, β1-receptors of the heart (Canis lupus familiaris, UniProt P79148); assay: Blocking of Isoproterenol-induced increase of maximum rate of left-ventricular pressure rise (Dp/dt max.) in anaesthetised dogs (β1-receptor inhibition); type: in vivo, mongrel dogs; conditions: for ED50: dog, intravenous, 50 % inhibition of reaction to Isoproterenol 0.5 gamma/kg i.v., anaesthetised dogs, read-out: β1-receptor inhibition ED 50; for Relative β1-receptor inhibition (reference substance = 100): relative ED 50, Practolol = 100, lower = more active; for Quotient: ED 50 β2-receptor inhibition / ED 50 β1-receptor inhibition: measure of cardioselective action, higher = better; for Quotient, on basis of reference substance = 1: relative cardioselectivity factor, Practolol = 1
# T1 construct: from tissue; host or cells: heart (left ventricle) of the living anaesthetised mongrel dog
# T1 sequence (P79148 whole entry): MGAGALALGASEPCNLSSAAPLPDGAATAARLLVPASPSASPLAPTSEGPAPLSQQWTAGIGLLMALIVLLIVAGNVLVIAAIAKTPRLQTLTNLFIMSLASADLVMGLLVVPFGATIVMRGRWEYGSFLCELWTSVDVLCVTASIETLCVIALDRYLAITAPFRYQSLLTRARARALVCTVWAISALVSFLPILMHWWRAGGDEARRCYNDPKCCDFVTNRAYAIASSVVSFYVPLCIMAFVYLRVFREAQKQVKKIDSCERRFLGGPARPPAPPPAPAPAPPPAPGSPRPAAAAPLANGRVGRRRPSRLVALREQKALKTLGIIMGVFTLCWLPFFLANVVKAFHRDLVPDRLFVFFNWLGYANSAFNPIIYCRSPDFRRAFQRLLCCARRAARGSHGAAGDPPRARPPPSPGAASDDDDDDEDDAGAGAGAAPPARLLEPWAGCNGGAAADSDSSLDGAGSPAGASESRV
# Description: (§1) The blocking action of the compounds according to the invention on the β1-receptors of the heart and on the β2-receptors of the cardiovascular system was investigated as follows: the blood pressure in the left-hand ventricle was measured on mongrel dogs of both sexes under anaesthesia by Chloralose-urethane-morphine and the pressure signal was continuously differentiated by means of an analogue computer (BRUSH Instruments, Cleveland/Ohio) and, inter alia, the rate of pressure increase (Dp/dt) was recorded. In addition, the perfusion of a femoral artery was measured by means of an electromagnetic flow meter (Model […] of Messrs. Statham) and the perfusion was recorded in ml/minutes. […] DUNLOP and […]: Selective blockade of adrenoceptive beta-receptors in the heart. Brit. J. Pharmac. Chemother. (1968) 32, 201-218). The substances to be tested for β-receptor blocking were administered intravenously in increasing dosages to the animals, which had been anaesthetised and stimulated by means of Isoproterenol, and the quantity of substance was determined at which a 50 % inhibition of the two reactions caused by Isoproterenol occurred (ED50). […] The higher this quotient is, the better the cardioselective action.
# [2] = molecular target: T2, β2-receptors of the cardiovascular system (Canis lupus familiaris, UniProt P54833); assay: Blocking of Isoproterenol-induced alteration of peripheral perfusion of the femoral artery in anaesthetised dogs (β2-receptor inhibition); type: in vivo, mongrel dogs; conditions: for ED50: dog, intravenous, 50 % inhibition of reaction to Isoproterenol 0.05 gamma/kg intra-arterial, anaesthetised dogs, read-out: β2-receptor inhibition ED 50; for Relative β2-receptor inhibition (reference substance = 100): relative ED 50, Practolol = 100
# T2 construct: from tissue; host or cells: femoral vascular bed of the living anaesthetised mongrel dog
# T2 sequence (P54833 whole entry, the tested form may be a part): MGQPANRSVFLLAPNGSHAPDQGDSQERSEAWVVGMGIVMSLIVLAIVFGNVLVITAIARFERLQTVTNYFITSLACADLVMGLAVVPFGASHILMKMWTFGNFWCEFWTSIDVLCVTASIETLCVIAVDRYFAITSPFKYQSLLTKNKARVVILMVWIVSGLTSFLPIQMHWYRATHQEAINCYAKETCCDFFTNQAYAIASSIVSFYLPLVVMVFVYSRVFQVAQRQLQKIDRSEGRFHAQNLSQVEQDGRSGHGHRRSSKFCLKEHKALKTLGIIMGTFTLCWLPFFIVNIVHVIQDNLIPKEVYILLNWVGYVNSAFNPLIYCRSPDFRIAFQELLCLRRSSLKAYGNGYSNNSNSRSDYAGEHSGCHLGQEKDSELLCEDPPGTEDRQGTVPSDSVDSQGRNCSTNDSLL
# Description: as §1
SMILES,ED50 [1],Relative β1-receptor inhibition (reference substance = 100) [1],Quotient: ED 50 β2-receptor inhibition / ED 50 β1-receptor inhibition [1],"Quotient, on basis of reference substance = 1 [1]",ED50 [2],Relative β2-receptor inhibition (reference substance = 100) [2]
Cc1ccc(C(O)CC(C)NCC(O)COc2ccc(Br)cc2)cn1 (centres unmarked) [1-(4-Bromo-phenoxy)-3-(1-[6-methyl-pyridyl-3]-1-hydroxy-butyl-(3)-amino)-propan-2-ol],0.074 mg/kg,31.1,,,,
CCCCCOc1ccc(OCC(O)CNC(C)CC(O)c2ccc(C)nc2)cc1 (centres unmarked) [1-(4-n-Pentyloxy-phenoxy)-3-(1-[6-methyl-pyridyl-3]-1-hydroxy-butyl-(3)-amino)-propan-2-ol],0.057 mg/kg,29.9,136,1.2,7.74 mg/kg,29.2
CCCOc1ccc(OCC(O)CNC(C)CC(O)c2ccc(C)nc2)cc1 (centres unmarked) [1-(4-n-Propoxy-phenoxy)-3-(1-[6-methyl-pyridyl-3]-1-hydroxy-butyl-(3)-amino)-propan-2-ol],0.011 mg/kg,4.6,171,1.5,1.8 mg/kg,6.8
CCCCOc1ccc(OCC(O)CNC(C)CC(O)c2ccc(C)nc2)cc1 (centres unmarked) [1-(4n-Butoxy-phenoxy)-3-(1-[6-methyl-pyridyl-3]-1-hydroxy-butyl-(3)-amino)-propan-2-ol],0.067 mg/kg,28.2,487,4.4,32.7 mg/kg,123.2
CC(=O)Nc1ccc(OCC(O)CNC(C)CC(O)c2ccc(C)nc2)cc1 (centres unmarked) [1-(p-Acetamino-phenoxy)-3-(1-[6-methyl-pyridyl-3]-1-hydroxy-butyl-(3)-amino)-propan-2-ol],0.012 mg/kg,5.04,165,1.5,1.99 mg/kg,7.5
"CC(=O)Nc1ccc(OCC(O)CNC(C)C)cc1 (centres unmarked) [4-(2-Hydroxy-3-isopropylamino-propoxy)-acetanilide, reference compound]",0.238 mg/kg,100,110,1,26.5 mg/kg,100
